pIC50: −log10 of the molar value.
What was measured:
RSV B Washington strain = assay: Assessment of RSV induced CPE in HEp2 cells (RSV B Washington strain); type: cell-based; conditions: human respiratory syncytial virus, HEp2 cells; for pIC50: HEp-2, 144 h, 1 MOI, 6 days, read-out: RSV B CPE IC50; for inhibition at 1 µg/mL / inhibition at 0.1 µg/mL: HEp-2; for inhibition at 1 µg/mL: Inhibition (%) at 1 μg/mL, read-out: RSV B CPE % Inhibition; for inhibition at 0.1 µg/mL: Inhibition (%) at 0.1 μg/mL
Summary of the method: (§1)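 HEp2 cells were infected at MOI 1 with RSV A2 or RSV B Washington, with compound added at the same time (0.5% DMSO final). Incubation was 5 days for A2 and 6 days for B, then viability was read by resazurin fluorescence (545/590 nm) after 6 h. IC50, IC75 and IC90 came from concentration-response curves.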

RSV A2 strain = assay: Assessment of RSV induced CPE in HEp2 cells (RSV A2 strain); type: cell-based; conditions: human respiratory syncytial virus, HEp2 cells; for pIC50: HEp-2, 120 h, 1 MOI, 5 days, read-out: RSV A2 CPE IC50; for inhibition at 0.1 µg/mL / inhibition at 0.01 µg/mL: HEp-2; for inhibition at 0.1 µg/mL: Inhibition (%) at 0.1 μg/mL, read-out: RSV A2 CPE % Inhibition; for inhibition at 0.01 µg/mL: Inhibition (%) at 0.01 μg/mL
Summary of the method: as §1

[1] = Cell viability: resazurin assay; type: cell-based, human; conditions: human, HEp2 cells
Summary of the method: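 Viability read-out: resazurin fluorescence (ex 545, em 590 nm) after 6 h, following 5-day compound incubation of HEp2 cells (37 °C, 5% CO2, 5% FBS, 0.5% DMSO final). Loss expressed as percentage of vehicle, negative if viability rose; CC50 derived from concentration-response curve where appropriate.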

[2] = system: RSV A2 F-protein expression in BEAS2B bronchial epithelial cells; assay: Assessment of RSV F protein expression in BEAS2B bronchial epithelial cells; type: cell-based; conditions: human respiratory syncytial virus, BEAS-2B, 72 h, read-out: RSV A2 F-protein IC50 (nM)
Experimental: Assessment of RSV F Protein Expression in BEAS2B Bronchial Epithelial Cells
An early event which follows the infection of epithelial cells by RSV is the expression of RSV F-protein on the cells' surface. BEAS2B cells (SV40-immortalised human bronchial epithelial cell line) were grown in 96 well plates. Once more than 70% confluent, cells were infected with RSV A2 (#0709161v, NCPV, Public Health England, Wiltshire) at an MOI of 0.01 in clear RPMI-1640 medium (Life technologies, Paisley, UK) with 2% FBS (Life technologies, Paisley, UK), and incubated for 3 days (37° C./5% CO2).
Supernatant was aspirated and the cells were fixed with 4% formaldehyde (100 μL in PBS solution) for 20 min, washed 3 times with washing buffer (200 μL; PBS containing 0.05% Tween-20) and incubated with blocking solution (100 μL; 5% Marvel milk in PBS) for 1 hr. Cells were then washed with washing buffer (200 μL) and incubated for 1 hr at 37° C. with anti-RSV (2F7; mouse monoclonal, lot 160290, Cat. No. ab43812, Abcam plc, Cambridge, UK) F-fusion protein antibody (50 μL; prepared at a 1:1000 dilution in 5% milk/PBS-tween). After washing, cells were incubated with an HRP-conjugated anti-mouse IgG antibody (50 μL prepared at a 1:2000 dilution in 5% milk in PBS; lot 00095437, Cat.No. P0447, Dako UK Ltd, Cambridgeshire, UK) for 1 hr. Cells were washed twice with washing buffer and once with PBS. TMB substrate (100 μL; substrate reagent pack lot 320436, Cat. No. DY999, R&D Systems, Inc. Abingdon, UK) was then added and the reaction was stopped by the addition of aq sulfuric acid (50 μL; 2N). The resultant signal was determined colourimetrically (OD: 450 nm with a reference wavelength of 655 nm) in a microplate reader (Multiskan FC®, ThermoFisher Scientific). Cells were then washed and 1% crystal violet solution (50 μL; lot SLB4576, Cat. No. HT90132-1L, Sigma-Aldrich) was applied for 30 min. After washing with PBS (200 μL) 3 times, 1% SDS (100 μL) was added to each well, and plates were shaken lightly for 1 hr prior to reading the absorbance at 595 nm. The measured OD450-655 readings were corrected for cell number by dividing the OD450-655 by the OD595 readings. The percentage inhibition for each well was calculated and the IC50 value derived from the concentration-response curve generated for each test compound.

Structure (SMILES)	pIC50 (RSV B Washington strain)	inhibition at 1 µg/mL (RSV B Washington strain)	pIC50 (RSV A2 strain)	inhibition at 0.1 µg/mL (RSV A2 strain)	CC50 at 5 days [1]	IC50 [2]	inhibition at 0.01 µg/mL (RSV A2 strain)	inhibition at 0.1 µg/mL (RSV B Washington strain)
Cc1ccccc1NC(=O)c1cc2c(s1)-c1ccccc1N(C(=O)c1ccc(NC(=O)c3cccnc3N3CC4(CCOCC4)C3)cc1)CC2 [Example 14, 6-(4-(2-(7-oxa-2-azaspiro[3.5]nonan-2-yl)nicotinamido)benzoyl)-N-(o-tolyl)-5,6-dihydro-4H-benzo[b]thieno[2,3-d] azepine-2-carboxamide]	7.26	92%	9.19	100%	> 14600 nM	0.41 nM		
O=C(Nc1ccccc1F)c1cc2c(s1)-c1ccccc1N(C(=O)c1ccc(NC(=O)c3cccnc3N3CC4(CCOCC4)C3)cc1)CC2 [Example 15, 6-(4-(2-(7-oxa-2-azaspiro[3.5]nonan-2-yl)nicotinamido)benzoyl)-N-(2-fluorophenyl)-5,6-dihydro-4H-benzo[b]thieno [2,3-d]azepine-2-carboxamide]	7.69	85%	9.40	100%	> 14500 nM	0.36 nM		
O=C(Nc1ccccc1Cl)c1cc2c(s1)-c1ccccc1N(C(=O)c1ccc(NC(=O)c3cccnc3N3CC4(CCOCC4)C3)cc1)CC2 [Example 16, 6-(4-(2-(7-oxa-2-azaspiro[3.5]nonan-2-yl)nicotinamido)benzoyl)-N-(2-chlorophenyl)-5,6-dihydro-4H-benzo[b]thieno [2,3-d]azepine-2-carboxamide]	6.85	63%	9.12	100%	> 14200 nM	0.93 nM		
O=C(Nc1c(F)cccc1Cl)c1cc2c(s1)-c1ccccc1N(C(=O)c1ccc(NC(=O)c3cccnc3N3CC4(CCOCC4)C3)cc1)CC2 [Example 26, 6-(4-(2-(7-oxa-2-azaspiro[3.5]nonan-2-yl)nicotinamido)benzoyl)-N-(2-chloro-6-fluorophenyl)-5,6-dihydro-4H-benzo[b]thieno[2,3-d]azepine-2-carboxamide]	8.03	73%	9.92	95%	> 13800 nM	0.14 nM		
O=C(Nc1ccc(F)cc1Cl)c1cc2c(s1)-c1ccccc1N(C(=O)c1ccc(NC(=O)c3cccnc3N3CC4(CCOCC4)C3)cc1)CC2 [Example 27, 6-(4-(2-(7-oxa-2-azaspiro[3.5]nonan-2-yl)nicotinamido)benzoyl)-N-(2-chloro-4-fluorophenyl)-5,6-dihydro-4H-benzo [b]thieno[2,3-d]azepine-2-carboxamide]	7.43	100%	9.77	100%	> 13800 nM	0.51 nM		
O=C(Nc1c(F)cccc1F)c1cc2c(s1)-c1ccccc1N(C(=O)c1ccc(NC(=O)c3cccnc3N3CC4(CCOCC4)C3)cc1F)CC2 [Example 30, 6-(4-(2-(7-oxa-2-azaspiro[3.5]nonan-2-yl)nicotinamido)-2-fluorobenzoyl)-N-(2,6-difluorophenyl)-5,6-dihydro-4H-benzo[b]thieno[2,3-d]azepine-2-carboxamide]	7.56	94%	9.92	100%	> 13800 nM	0.27 nM		
Cc1cnc(N2CC3(CCOCC3)C2)c(C(=O)Nc2ccc(C(=O)N3CCc4cc(C(=O)Nc5ccccc5F)sc4-c4ccccc43)cc2)c1 [Example 33, N-(2-fluorophenyl)-6-(4-(5-methyl-2-(7-oxa-2-azaspiro [3.5]nonan-2-yl)nicotinamido)benzoyl)-5,6-dihydro-4H-benzo[b]thieno[2,3-d]azepine-2-carboxamide]	8.01	74%	> 10.85	100%	> 14200 nM	0.19 nM		
Cc1cnc(N2CC3(CCOCC3)C2)c(C(=O)Nc2ccc(C(=O)N3CCc4cc(C(=O)Nc5c(F)cccc5Cl)sc4-c4ccccc43)cc2)c1 [Example 39, N-(2-chloro-6-fluorophenyl)-6-(4-(5-methyl-2-(7-oxa-2-azaspiro[3.5]nonan-2-yl)nicotinamido)benzoyl)-5,6-dihydro-4H-benzo[b]thieno[2,3-d]azepine-2-carboxamide]	7.76	77%	> 10.85	100%	> 13600 nM	0.057 nM		
O=C(Nc1c(F)cccc1Cl)c1cc2c(s1)-c1ccccc1N(C(=O)c1ccc(NC(=O)c3cc(C4CC4)cnc3N3CC4(CCOCC4)C3)cc1)CC2 [Example 65, N-(2-chloro-6-fluorophenyl)-6-(4-(5-cyclopropyl-2-(7-oxa-2-azaspiro[3.5]nonan-2-yl)nicotinamido)benzoyl)-5,6-dihydro-4H-benzo[b]thieno[2,3-d]azepine-2-carboxamide]	8.80	100%	9.89		> 13100 nM	0.59 nM	100%	
O=C(Nc1c(F)cccc1F)c1cc2c(s1)-c1ccccc1N(C(=O)c1ccc(NC(=O)c3cc4c(nc3N3CC5(CCOCC5)C3)CCC4)cc1)CC2 [Example 75, 6-(4-(2-(7-oxa-2-azaspiro[3.5]nonan-2-yl)-6,7-dihydro-5H-cyclopenta[b]pyridine-3-carboxamido)benzoyl)-N-(2,6-difluorophenyl)-5,6-dihydro-4H-benzo[b]thieno[2,3-d] azepine-2-carboxamide]	8.64	100%	10.00		> 13400 nM	0.25 nM	84%	
O=C(Nc1c(F)cccc1Cl)c1cc2c(s1)-c1ccccc1N(C(=O)c1ccc(NC(=O)c3cc4c(nc3N3CC5(CCOCC5)C3)CCC4)cc1)CC2 [Example 76, 6-(4-(2-(7-oxa-2-azaspiro[3.5]nonan-2-yl)-6,7-dihydro-5H-cyclopenta[b]pyridine-3-carboxamido)benzoyl)-N-(2-chloro-6-fluorophenyl)-5,6-dihydro-4H-benzo[b]thieno[2,3-d] azepine-2-carboxamide]	8.85	100%	9.82		> 13100 nM	0.32 nM	100%	
O=C(Nc1c(F)cccc1Cl)c1cc2c(s1)-c1ccccc1N(C(=O)c1ccc(NC(=O)c3cc4c(nc3N3CC5(CCOCC5)C3)CCCC4)cc1)CC2 [Example 81, 6-(4-(2-(7-oxa-2-azaspiro[3.5]nonan-2-yl)-5,6,7,8-tetra-hydroquinoline-3-carboxamido)benzoyl)-N-(2-chloro-6-fluorophenyl)-5,6-dihydro-4H-benzo[b]thieno[2,3-d]azepine-2-carboxamide]	7.99		9.74		> 12900 nM	0.13 nM	77%	100%
O=C(Nc1c(F)cccc1Cl)c1cc2c(s1)-c1ccccc1N(C(=O)c1ccc(NC(=O)c3cc4ccccc4nc3N3CC4(CCOCC4)C3)cc1)CC2 [Example 87, 6-(4-(2-(7-oxa-2-azaspiro[3.5]nonan-2-yl)quinoline-3-carboxamido)benzoyl)-N-(2-chloro-6-fluorophenyl)-5,6-di-hydro-4H-benzo[b]thieno[2,3-d]azepine-2-carboxamide]	7.80		9.27		> 12900 nM	0.49 nM	94%	100%

From patent US10189863B2, “5,6-dihydro-4H-benzo[b]thieno-[2,3-d]azepine derivatives” (PULMOCIDE LIMITED, priority 2014, dated 2019)
